PubChem BioAssay AID2060612 (Molecular Pharmacology Branch, DTP, NCI, 2025)

Tested on: 565232-114-T-J1-PDC complex spheroid viability
Assay: Anticancer human tumor 565232-114-T-J1-PDC patient-derived bladder carcinoma cell line growth inhibition [CLK]
Settings: for IC50: curve of first compound; for viability, T/C: stronger effect = lower value
Summary of the method: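 Multi-cell-type spheroids combined patient-derived tumor cells with HUVEC endothelial cells and human mesenchymal stem cells. Paired agents were dosed in half-log steps down from about clinical Cmax, or from 10 microM where Cmax was unknown.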

[1] = second compound 0.0316 µM, first compound 0.0316 µM
[2] = second compound 0.0316 µM, first compound 0.1 µM
[3] = second compound 0.0316 µM, first compound 0.316 µM
[4] = second compound 0.0316 µM, first compound 1 µM
[5] = second compound 0.0316 µM, first compound 3.16 µM
[6] = second compound 0.0316 µM, first compound 10 µM
[7] = second compound 0.1 µM, first compound 0.0316 µM
[8] = second compound 0.1 µM, first compound 0.1 µM
[9] = second compound 0.1 µM, first compound 0.316 µM
[10] = second compound 0.1 µM, first compound 1 µM
[11] = second compound 0.1 µM, first compound 3.16 µM
[12] = second compound 0.1 µM, first compound 10 µM
[13] = second compound 0.316 µM, first compound 0.0316 µM
[14] = second compound 0.316 µM, first compound 0.1 µM
[15] = second compound 0.316 µM, first compound 0.316 µM
[16] = second compound 0.316 µM, first compound 1 µM
[17] = second compound 0.316 µM, first compound 3.16 µM
[18] = second compound 0.316 µM, first compound 10 µM
[19] = second compound 1 µM, first compound 0.0316 µM
[20] = second compound 1 µM, first compound 0.1 µM
[21] = second compound 1 µM, first compound 0.316 µM
[22] = second compound 1 µM, first compound 1 µM
[23] = second compound 1 µM, first compound 3.16 µM
[24] = second compound 1 µM, first compound 10 µM
[25] = second compound 3.16 µM, first compound 0.0316 µM
[26] = second compound 3.16 µM, first compound 0.1 µM
[27] = second compound 3.16 µM, first compound 0.316 µM
[28] = second compound 3.16 µM, first compound 1 µM
[29] = second compound 3.16 µM, first compound 3.16 µM
[30] = second compound 3.16 µM, first compound 10 µM
[31] = second compound 10 µM, first compound 0.0316 µM
[32] = second compound 10 µM, first compound 0.1 µM
[33] = second compound 10 µM, first compound 0.316 µM
[34] = second compound 10 µM, first compound 1 µM
[35] = second compound 10 µM, first compound 3.16 µM
[36] = second compound 10 µM, first compound 10 µM
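Further: spheroids exposed to compounds for 7 days before readout.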
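Wherever viability, T/C is given: 100% = DMSO vehicle wells with luminescence normalized to vehicle control.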

In the case of `COc1ccc([C@@H](O)c2cc(-c3ncnc4cc(N5CCOCC5)ccc34)c(F)cc2Cl)nn1` + CN1CCN(c2cc(C(=O)Nc3cc4cc(-c5cnn(C)c5)ccc4cn3)ccn2)CC1, the IC50 (second compound 0.0316 µM) is reported as > 10000 nM, the IC50 (second compound 0.1 µM) is reported as > 10000 nM and the IC50 (second compound 0.316 µM) is reported as < 31.6 nM. For the same compound, the IC50 (second compound 1 µM) was < 31.6 nM, the IC50 (second compound 3.16 µM) was < 31.6 nM and the IC50 (second compound 10 µM) was < 31.6 nM. It also gave a viability, T/C [1] of 87.3%, a viability, T/C [2] of 95.6% and a viability, T/C [3] of 88.1%. For the same compound, the viability, T/C [4] was 85.4%, the viability, T/C [5] was 96.9% and the viability, T/C [6] was 103%. For the same compound, the viability, T/C [7] was 88.1%, the viability, T/C [8] was 91.6% and the viability, T/C [9] was 86.3%. The viability, T/C [10] was 113%, the viability, T/C [11] was 105% and the viability, T/C [12] was 97.9%. For the same compound, the viability, T/C [13] was 12.2%, the viability, T/C [14] was 18.2% and the viability, T/C [15] was 17.1%. It also gave a viability, T/C [16] of 11.9%, a viability, T/C [17] of 16.2% and a viability, T/C [18] of 13.2%. For the same compound, the viability, T/C [19] was 0.83%, the viability, T/C [20] was 0.2% and the viability, T/C [21] was 1.54%. The viability, T/C [22] was 0.18%, the viability, T/C [23] was 0.2% and the viability, T/C [24] was 1.34%. It also gave a viability, T/C [25] of 0.14%, a viability, T/C [26] of 0.2% and a viability, T/C [27] of 0.18%. It also gave a viability, T/C [28] of 0.18%, a viability, T/C [29] of 1.47% and a viability, T/C [30] of 1.21%. The viability, T/C [31] was 0.1%, the viability, T/C [32] was 0.16% and the viability, T/C [33] was 0.24%. For the same compound, the viability, T/C [34] was 0.19%, the viability, T/C [35] was 0.2% and the viability, T/C [36] was 1.44%.
`CCCS(=O)(=O)Nc1ccc(F)c(C(=O)c2c[nH]c3ncc(-c4ccc(Cl)cc4)cc23)c1F` + CNC(=O)c1ccc(Nc2nc(OC3CCCC3)c3c(-c4ccc5nc(C)oc5c4)c[nH]c3n2)c(OC)c1 was tested, and the IC50 (second compound 0.0316 µM) was 5980 nM, the IC50 (second compound 0.1 µM) was 455 nM and the IC50 (second compound 0.316 µM) was < 31.6 nM. The IC50 (second compound 1 µM) was < 31.6 nM, the IC50 (second compound 3.16 µM) was < 31.6 nM and the IC50 (second compound 10 µM) was < 31.6 nM. It also gave a viability, T/C [1] of 95.7%, a viability, T/C [2] of 75.2% and a viability, T/C [3] of 75.3%. The viability, T/C [4] was 96.2%, the viability, T/C [5] was 110% and the viability, T/C [6] was 17.2%. The viability, T/C [7] was 56.5%, the viability, T/C [8] was 56.1% and the viability, T/C [9] was 50.7%. For the same compound, the viability, T/C [10] was 46.6%, the viability, T/C [11] was 30.8% and the viability, T/C [12] was 9.67%. For the same compound, the viability, T/C [13] was 36.1%, the viability, T/C [14] was 35.9% and the viability, T/C [15] was 32.9%. The viability, T/C [16] was 32.5%, the viability, T/C [17] was 26.3% and the viability, T/C [18] was 6.44%. The viability, T/C [19] was 23.7%, the viability, T/C [20] was 27.2% and the viability, T/C [21] was 26.4%. For the same compound, the viability, T/C [22] was 23.1%, the viability, T/C [23] was 16.4% and the viability, T/C [24] was 5.45%. The viability, T/C [25] was 19.1%, the viability, T/C [26] was 20.5% and the viability, T/C [27] was 18.4%. It also gave a viability, T/C [28] of 18.8%, a viability, T/C [29] of 18.9% and a viability, T/C [30] of 4.02%. For the same compound, the viability, T/C [31] was 20.4%, the viability, T/C [32] was 17.8% and the viability, T/C [33] was 18.1%. For the same compound, the viability, T/C [34] was 17.2%, the viability, T/C [35] was 11.6% and the viability, T/C [36] was 3.9%.
`COC1C=CCC(C)C(C)S(=O)(=O)NC(=O)c2ccc3c(c2)N(CC2CCC21)CC1(CCCc2cc(Cl)ccc21)CO3` (stereo unspecified) + CNC(=O)c1ccc(Nc2nc(OC3CCCC3)c3c(-c4ccc5nc(C)oc5c4)c[nH]c3n2)c(OC)c1 was tested, and the IC50 (second compound 0.0316 µM) was 695 nM, the IC50 (second compound 0.1 µM) was < 31.6 nM and the IC50 (second compound 0.316 µM) was < 31.6 nM. The IC50 (second compound 1 µM) was < 31.6 nM, the IC50 (second compound 3.16 µM) was < 31.6 nM and the IC50 (second compound 10 µM) was < 31.6 nM. For the same compound, the viability, T/C [1] was 89.9%, the viability, T/C [2] was 103% and the viability, T/C [3] was 85.8%. For the same compound, the viability, T/C [4] was 33.2%, the viability, T/C [5] was 6.83% and the viability, T/C [6] was 3.49%. The viability, T/C [7] was 43.1%, the viability, T/C [8] was 36.9% and the viability, T/C [9] was 24.7%. It also gave a viability, T/C [10] of 19.2%, a viability, T/C [11] of 7.48% and a viability, T/C [12] of 5.14%. It also gave a viability, T/C [13] of 24.4%, a viability, T/C [14] of 19.1% and a viability, T/C [15] of 16.4%. For the same compound, the viability, T/C [16] was 9.76%, the viability, T/C [17] was 5.62% and the viability, T/C [18] was 3.86%. For the same compound, the viability, T/C [19] was 15.8%, the viability, T/C [20] was 14.5% and the viability, T/C [21] was 13.3%. For the same compound, the viability, T/C [22] was 7.06%, the viability, T/C [23] was 4.08% and the viability, T/C [24] was 2.86%. For the same compound, the viability, T/C [25] was 11.4%, the viability, T/C [26] was 11% and the viability, T/C [27] was 7.5%. It also gave a viability, T/C [28] of 4.35%, a viability, T/C [29] of 2.97% and a viability, T/C [30] of 3%. The viability, T/C [31] was 14.1%, the viability, T/C [32] was 9.12% and the viability, T/C [33] was 6.08%. For the same compound, the viability, T/C [34] was 5.45%, the viability, T/C [35] was 3.56% and the viability, T/C [36] was 3.09%.
